Measured values taken from patent US20230080054A1 (ILDONG PHARMACEUTICAL CO., LTD., priority 2021, published 2023).

The molecules below were run on platelet-rich plasma (PRP) (assay: Recalcification time of rat platelet-rich plasma). Conditions: 30 μM, vs 2% DMSO control.
Description: Example 5: Recalcification Time
1. Materials and Instruments
Isoflurane (Hana Pharm, cat. #9008), Isotonic Sodium Chloride Injection (Daihan Pharm, cat. #331), Citrate-dextrose solution (Sigma-Aldrich, cat. #C3821), Calcium chloride solution (Sigma-Aldrich, cat. #21115), 22G Syringe 10 mL (Koreavaccine), Dimethyl sulfoxide (Sigma-Aldrich, cat. #D5879), Apixaban (AK scientific, cat. #X1060), 96 Well Cell Culture Plates (SPL Life Sciences, cat. #30096), Synergy H4 Hybrid Microplate Reader (BioTek), Combi R515 Multi-purpose Centrifuge (Hanil Scientific), BS-06 Shaking & Heating Baths (JEIO TECH), and PST-60HL-4 Plate Shaker-Thermostat (Bio-San)
Seven-week-old male SD Rat (ORIENT BIO.) were maintained under controlled conditions of temperature (22±2° C.) and 12-h light/12-h dark cycle. Rats were housed in the pathogen-free facility of the Laboratory Animal Research Center in Ildong Pharmaceutical Co. Ltd. All procedures on animals were conducted in accordance with the relevant national regulatory guidelines and individual experiments approved by the Ildong Pharmaceutical Co. Ltd., Institutional Animal Care and Use Committee (IACUC) (approval No.: A2106-3, 2108-4).
The ability of test compounds to interfere with plasma coagulation, in the presence of platelets, was analyzing by measuring the recalcification time of rat plasma. The blood of animals was collected into 15 mL tubes containing Citrate-dextrose solution (9:1 v/v) before performing the assays. For recalcification time, platelet-rich plasma (PRP) samples were obtained by centrifugation at 360×g for 10 minutes. And the PRP were preincubated for 5 minutes (37° C.). In a 96 well microplate, test compounds (2 μL) were treated in 98 μL of platelet rich plasma. After mixing with a pipette, it was incubated at 37° C. for 15 minutes. The reaction was started by addition of 200 μL of pre-warmed CaCl2) (16 mM). Immediately, put the microplate in a microplate reader and the signals were measured by the following steps.
(1) 405 nm wavelength absorbance signals were recorded in every 10 seconds at 37° C.
(2) Basal absorbance signals were recorded for 0 second.
The signal variance of each of the test compounds was obtained by the following step.
(1) Background signals (t=O) were subtracted from recording values, and the resulting values were converted to change values. The values at 0 second were set to be zero.
The retardation time of test compound were calculated by the following formula:
Retardation time (sec)=[log EC50 (test sample)−log EC50 (DMSO control)]
As described above, a DMSO control group is a group to which 2% DMSO was treated.
The assay result is shown in Table 5, where compounds (30 μM) having less than 20 seconds of retardation time are marked by ‘C’; the compounds (30 μM) having retardation time of 20 seconds or more to less than 50 seconds are marked by ‘B’; and the compounds (30 μM) having retardation time of 50 seconds or more are marked by ‘A’.

Compound | Inhibition Level (retardation time, recalcification time)
O=C(N[C@@H]1C[C@H]1c1ccccc1)c1cccc(Nc2ncc(-c3cccc(F)c3)cn2)c1 [Compound 119, 3-{[5-(3-fluorophenyl)pyrimidin-2-yl]amino}-N-[(1R,2S)-2-phenylcyclopropyl]benzamide] | C (compounds (30 μM) having less than 20 seconds of retardation time)
O=C(Nc1ccc(Cl)c(Cl)c1)c1cccc(Nc2ncc(-c3cccc(F)c3)cn2)c1 [Compound 118, N-(3,4-dichlorophenyl)-3-{[5-(3-fluorophenyl)pyrimidin-2-yl]amino}benzamide] | C (compounds (30 μM) having less than 20 seconds of retardation time)
O=C(NCCC1CCCCC1)c1cccc(Nc2ncc(-c3cccc(F)c3)cn2)c1 [Compound 80, N-(2-cyclohexylethyl)-3-{[5-(3-fluorophenyl)pyrimidin-2-yl]amino}benzamide] | C (compounds (30 μM) having less than 20 seconds of retardation time)
O=C(N[C@@H]1C[C@H]1c1ccccc1)c1cccc(Nc2ccc(-c3cccc(F)c3)cn2)c1 [Compound 123, 3-{[5-(3-fluorophenyl)pyridin-2-yl]amino}-N-[(1R,2S)-2-phenylcyclopropyl]benzamide] | B (the compounds (30 μM) having retardation time of 20 seconds or more to less than 50 seconds)
O=C(N[C@@H]1C[C@H]1c1ccccc1)c1cccc(Nc2ccc(-c3ccccc3)nn2)c1 [Compound 68, N-[(1R,2S)-2-phenylcyclopropyl]-3-[(6-phenylpyridazin-3-yl)amino]benzamide] | A (the compounds (30 μM) having retardation time of 50 seconds or more)
O=C(NCCc1cccc(C(F)(F)F)c1)c1cccc(Nc2ncc(-c3cccc(F)c3)cn2)c1 [Compound 79, 3-{[5-(3-fluorophenyl)pyrimidin-2-yl]amino}-N-{2-[3-(trifluoromethyl)phenyl]ethyl}benzamide] | C (compounds (30 μM) having less than 20 seconds of retardation time)
O=C(Nc1cccc(F)c1)c1cccc(Nc2ccc(-c3cccc(F)c3)cn2)c1 [Compound 122, N-(3-fluorophenyl)-3-{[5-(3-fluorophenyl)pyridin-2-yl]amino}benzamide] | B (the compounds (30 μM) having retardation time of 20 seconds or more to less than 50 seconds)
